Patent US12350273B2, “Treatment of SMA” (Hoffmann-La Roche Inc., priority 2017, dated 2025)

Key:
[1] = test system: FOXM1B/C transcript variants; test: FOXM1B/C mRNA expression in human iPSCs (RT-qPCR); type: cell-based; details: 24 h
Method: FIG. 5A-FIG. 5B: Effect of RO7034067 on FOXM1 mRNA expression levels in human and Cynomolgus monkey iPSCs • Cells were treated with RO7034067 for 24 hours, and FOXM1 B/C transcript variants were analyzed by RT-PCR. Data represent means±SEM of 3 repetitions and are expressed as fold change vs. controls. IC50 values are indicated. FIG. 5A. human iPSCs. FIG. 5B. Cynomolgus monkey iPSCs
Human iPSCs (hIPS_Neo_Clone_1) were cultivated in mTeSR1 (Stem Cell Technologies) as standard medium and Cynomolgus monkey iPSCs (cips_54-1285_cFIB_Clone_8) in MT medium supplemented with 10 ng/ml ActivinA and 15 ng/ml FGF2.
For gene expression profiling, stem cells were detached with Accutase (Stem Cell Technologies) and plated in 12 well plates coated with Matrigel (BD Biosciences) in the respective standard medium supplemented with 10 μM Rock inhibitor Y-27632 (Sigma-Aldrich). In order to obtain enough RNA, monkey stem cells were seeded at 15000 cells/cm2 and human stem cells were seeded at 40000 cells/cm2 24 h prior to treatment. Thereafter stem cells were treated for 24 h with serial dilutions (1:5) of test items in fresh, pre-warmed medium in a concentration range from 0.64 nM till ˜10 μM. To stop the experiment, cells were lysed in QiaGen's lysis buffer RLT with beta-mercaptoethanol.
Human and Cynomolgus monkey mRNA expression was measured with customized primer and FAM fluorescently-labeled Universal Probe Library (UPL) probes from Roche or probes from Microsynth containing a 5′ FAM label and a 3′ terminal BlackHole Dark Quencher 1 (BHQ1). The sequences of the primer and FAM labeled probes are listed as follows:
For quantitative Real-Time-PCR, cells cultivated in a 12 well plate and treated with Roche-compounds for 24 h were lysed in 500 ul/well of QiaGen's lysis buffer RLT with beta-mercaptoethanol. Total RNA was extracted with the RNeasy Mini kit combined with DNase treatment on a solid support. RNA integrity was controlled by using Nanodrop absorption spectroscopy and microfluidic capillary array electrophoresis profiles from an Agilent Bioanalyzer
2100. Between 300 ng to 800 ng of total RNA were reverse transcribed with oligo-dT primer and spiked MS2 RNA at 10 ng/uL final concentration using the Transcriptor First Strand cDNA Synthesis Kit (Roche Applied Science #04379012001) following the manufacturer's recommended protocol. The quantitative PCR was performed on a LightCycler 480 qPCR machine using 67.5 ng total RNA derived cDNA as input in a 20 μl mixture containing 1× LightCycler 480 Probes Master, 0.4 μM forward and reverse primers, and 0.2 μM FAM labeled hydrolysis probe. The temperature program consisted of pre-incubation at 95° C. for 10 min, followed by 50 cycles of amplification (95° C. for 10 s, 60° C. for 30 s, 72° C. for 5 s). Negative control reactions were conducted in the absence of cDNA template to confirm absence of cDNA contamination in the master mix. Measurements of Ct (cycle threshold)-values were performed for each sample-mRNA combination. Using the 2-ΔΔCt method (Livak K J et al. Method. Methods. 2001; 25(4):402-8), the data are presented as the fold change in gene expression normalized to an endogenous reference gene and relative to the untreated control. To derive individual ΔCt values, the Ct value for each target mRNA of each sample was normalized to the Ct value of the endogenous reference mRNA of GAPDH (glyceraldehyde-3-phosphate dehydrogenase). The […] was calculated by subtracting the ΔCt value of the vehicle-control group from the respective ΔCt value of each treatment group. Resultant expression ratios (2-ΔΔCt) mirrored treatment-related mRNA expression changes versus vehicle-controls. […] The model to derive the IC50 assumes that the dose response curves has a standard slope, equal to a Hill slope (or slope factor) of −1.0. Model equation: Y=Bottom+(Top-Bottom)/(1+10^((X-Log IC50))); with Y being the response data and X being log 10 concentrations in μM.

MADD gene transcripts = test: 2-week dose-range finding toxicity study in rat: MADD splicing in spleen, duodenum, testis; type: in vivo; details: rats treated 2 weeks, highest dose of 7.5 mg/kg/day
Method: Gene expression analysis was performed in spleen, duodenum, and testis in rats treated for 2 weeks (MADD gene). […] The changes in splicing of MADD transcripts are consistent with the observations of apoptosis in the GI tract observed at the same dose since MADD gene products have been reported to interfere with the apoptosis processes.

retina = test: 26 weeks of treatment in pigmented rats: retina; type: in vivo

Cc1cn2nc(-c3cc(=O)n4cc(N5CCNC6(CC6)C5)ccc4n3)cc(C)c2n1 [RO7034067, 7-(4,7-diazaspiro[2.5]octan-7-yl)-2-(2,8-dimethylimidazo[1,2-b]pyridazin-6-yl)pyrido[1,2-a]pyrimidin-4-one] was tested, and the “Mean FOXM1B/C relative mRNA expression (2^-ΔΔCt vs control)” value ([1]; 0.64 nM) was 1.115, the “Mean FOXM1B/C relative mRNA expression (2^-ΔΔCt vs control)” value ([1]; 3.2 nM) was 1.032 and the “Mean FOXM1B/C relative mRNA expression (2^-ΔΔCt vs control)” value ([1]; 16 nM) was 0.898. The “Mean FOXM1B/C relative mRNA expression (2^-ΔΔCt vs control)” value ([1]; 80 nM) was 0.748, the “Mean FOXM1B/C relative mRNA expression (2^-ΔΔCt vs control)” value ([1]; 400 nM) was 0.178 and the “Mean FOXM1B/C relative mRNA expression (2^-ΔΔCt vs control)” value ([1]; 2000 nM) was 0.185. The “Mean FOXM1B/C relative mRNA expression (2^-ΔΔCt vs control)” value ([1]; 10000 nM) was 0.102, the IC50 ([1]; iPSC, read-out: IC50 on expression levels of FOXM1B/C) was 114 nM and the “gene expression analysis of MADD gene transcripts” value (MADD gene transcripts) was “splicing response”. The retinal effects (retina) was “no evidence for any retinal effects”.
